Laboratory results published in the supplement of paper PMC10307832.

Key:
[1] = compound: Nc1nc2[nH]cc(CCc3ccc(C(=O)N[C@@H](CCC(=O)O)C(=O)O)cc3)c2c(=O)[nH]1 [Pemetrexed]; assay: relative viability (nuclei count vs DMSO), 5 days (fraction); higher = more cells survive
How it was run: (§1)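 A plate was accepted only when its control CV was below 25% and the cells had doubled at least once. Viability is defined from nuclear counts as treated wells divided by vehicle wells, with the median taken across plates. That median covers lung cancer cell lines grown in 1536-well plates, dosed by pinning at five √10-spaced library-drug concentrations, and counted in MetaXpress from 4× Hoechst images after 5 days.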

[2] = compound: CC[C@H](Nc1ncnc2[nH]cnc12)c1nc2cccc(F)c2c(=O)n1-c1ccccc1 [Idelalisib]; assay: as above
How it was run: as §1

| Cell Line | relative viability ([1]; 0.002 µM) | relative viability ([1]; 0.006325 µM) | relative viability ([1]; 0.02 µM) | relative viability ([1]; 0.06325 µM) | relative viability ([1]; 0.2 µM) | relative viability ([1]; 0.2 µM, anchor plate) | relative viability ([2]; 0.04 µM) | relative viability ([2]; 0.1265 µM) | relative viability ([2]; 0.4 µM) | relative viability ([2]; 1.265 µM) | relative viability ([2]; 4 µM) |
| --- | --- | --- | --- | --- | --- | --- | --- | --- | --- | --- | --- |
| A-427 | 0.94 | 1.05 | 1.07 | 0.992 | 0.939 | 0.98 | 1.14 | 1.01 | 0.883 | 1.01 | 0.904 |
| NCI-H1623 | 0.899 | 1.04 | 0.976 | 0.912 | 0.955 | – | 1 | 0.961 | 0.846 | 0.949 | 0.817 |
| NCI-H596 | 0.996 | 0.909 | 0.942 | 0.732 | 0.436 | 0.499 | 1.05 | 1.01 | 0.976 | 1.04 | 0.809 |
| RERF-LC-KJ | 0.958 | 0.969 | 1.03 | 0.995 | 0.746 | 0.486 | 1.11 | 0.99 | 0.955 | 0.959 | 0.817 |
| NCI-H647 | 0.734 | 1.01 | 1.04 | 0.883 | 0.289 | 0.182 | 1.01 | 1.08 | 0.719 | 0.847 | 0.702 |
| NCI-H1734 | 0.997 | 0.923 | 1.11 | 0.964 | 0.676 | 0.433 | 1.15 | 1.04 | 0.833 | 0.959 | 0.938 |
| SK-LU-1 | 0.944 | 0.979 | 1.05 | 1.12 | 1 | 0.927 | 1.07 | 1.11 | 0.866 | 0.953 | 0.979 |
| NCI-H1563 | 0.907 | 0.955 | 0.991 | 1.03 | 1.01 | 0.799 | 0.96 | 0.997 | 0.909 | 0.946 | 0.876 |
| NCI-H1395 | 0.796 | 1.02 | 1.09 | 0.994 | 0.86 | 0.892 | 1.07 | 0.991 | 0.846 | 0.912 | 0.741 |
| COR-L23 | 0.998 | 0.979 | 1.04 | 0.375 | 0.211 | 0.2 | 1.12 | 1.05 | 0.931 | 1.14 | 0.949 |
| EMC-BAC-2 | 0.868 | 1.04 | 1.12 | 0.966 | 0.782 | 0.444 | 1.25 | 0.989 | 0.878 | 1.01 | 1.11 |
| NCI-H1355 | 0.787 | 0.962 | 0.999 | 1.05 | 1 | 1.04 | 1.03 | 1 | 0.871 | 0.961 | 0.861 |
| NCI-H1792 | 1.09 | 0.897 | 1 | 0.893 | 0.94 | 0.968 | 1.08 | 0.942 | 0.653 | 1.09 | 0.85 |
| NCI-H1944 | 0.716 | 0.99 | 1.04 | 0.956 | 0.969 | 0.619 | 1.21 | 0.943 | 0.785 | 1.01 | 0.803 |
| ABC-1 | 0.911 | 1.02 | 1.22 | 0.976 | 0.822 | – | 0.917 | 0.938 | 0.955 | 0.895 | 0.961 |
| HOP-62 | 0.864 | 0.949 | 1.08 | 0.964 | – | – | 1.07 | 0.998 | 0.936 | 1.14 | 0.963 |
| NCI-H2009 | 0.905 | 0.953 | 1.14 | 0.997 | 0.976 | 1.03 | 0.998 | 1.02 | 0.974 | 1.06 | 1.04 |
